Assay results published in paper PMC11091117, “A fluorescently-tagged tick kinin neuropeptide triggers peristalsis and labels tick midgut muscles” (Scientific Reports, 2024).
“Also recorded” adds a separate entry of the source.

Columns and labels:
[1] = system: tick kinin receptor in midgut muscles; test: Fluorescent labeling of live midgut ex vivo, confocal microscopy; type: binding, Rhipicephalus sanguineus
Description: Three peptides were used in this study. These included: 1) the ligand for the endogenous tick kinin receptor from Rhipicephalus sanguineus, Rhisa-kinin 8 peptide of sequence GTGEDQAFSPWGamide (Rhisa-K-8; RK8; of identical sequence to Rhimi-K-8 in Rhipicephalus microplus)[48], 2) the same peptide but fluorescently labeled at the N-terminus with tetramethylrhodamine (TMR) a red fluorescent dye, designated TMR-Rhisa-K-8 (TMR-RK8), and 3) a labeled peptide synthesized with the scrambled sequence of the kinin ligand, designated TMR-Scrambled. The sequence of TMR-RK8 was TMR-C-GTGEDQAFSPWGamide). The TMR-Scrambled kinin (TMR-C-GTQWGPGFEADSamide) served as a negative control for tissue labeling. All peptides were custom-synthesized and purchased from GenScript (Piscataway, NJ, USA) with a purity of ≥ 95% and the cysteine in bold in both sequences was added to attach the label. Experiments were replicated with independently synthesized batches (4 mg each) of labeled and unlabeled peptides, for reproducibility. Unlabeled RK8 was used as a competitive ligand to verify target-specific binding of the labeled TMR-RK8 (see Ligand Competition Assay). For cell assays, the peptide stock solutions (100 µM) were made in 1% dimethyl sulfoxide (DMSO) in Hank’s balanced salt solution (HBSS, Thermo Fisher, Waltham, USA). For fluorescent cell labeling, peptide working solutions (10 µM) were prepared in HBSS from stock solutions. For assays on the midgut, peptides were solubilized and diluted in a tick physiological saline consisting of 140 mM NaCl, 5 mM KCl, 1 mM MgCl2, 5 mM CaCl2, 4 mM NaHCO3, and 5 mM HEPES, pH 7.2[49].
Individual female ticks were immobilized on a Petri dish filled with wax by submerging their legs in melted wax heated with a soldering pencil (Electronic Control Soldering Station EC 1000, Weller, Apex, North Carolina, USA). Females were dissected under physiological saline following the protocol described by Tidwell et al.[51]. The tick was cut along the edge of the scutum/alloscutum using a stainless steel #12 scalpel blade (Integra Miltex, York, PA, USA), after which the scutum was removed with a pair of fine forceps. To expose the midgut for removal, the tracheae, Malpighian tubules, ovaries, rectal sac, and synganglion were removed with fine forceps in that order. The midgut was then carefully removed and placed into 200 µL of fresh tick saline (See Reagents and Peptides) on a single gasketed incubation chamber (500 µL, Size 22 × 40 mm, Electron Microscopy Sciences, Hatfield, PA). The midguts were then rinsed three times with the physiological tick saline for subsequent fluorescent labeling or activity experiments.
To determine the location of the tick kinin receptor in the midgut of ticks, a commercially synthesized Rhisa-kinin peptide 8[52] conjugated with a stable, red fluorophore (TMR-RK8) or a similarly labeled peptide of scrambled sequence (TMR-Scrambled) were applied to freshly dissected midguts ex vivo. For this, midguts of unfed adult females were incubated in ice-cold saline for 10 min. The saline was removed before incubation in 200 µL of 4’,6-diamidino-2-phenylindole dihydrochloride (DAPI, Sigma, 1 µg/mL in saline) for 1 min and rinsed with saline (200 µL) once. After saline removal, the midgut was incubated for 1 min with 200 µL of 10 µM of either TMR-Scrambled kinin or TMR-RK8, then the labeled peptide solution was removed by pipette and the midgut was rinsed twice with 200 µL saline. […]

[2] = system: vector-only (V/O) CHO-K1 cells; test: Fluorescence microscopy validation of labeled peptide specificity on live vector-only cells; type: binding; conditions: 1 µM TMR-RK8, 5 min at room temperature, HBSS; Zeiss Axio Observer, BPTmX channel
Procedure: BMLK3 and vector-only cells were cultured in selective media (F-12K medium containing 10% fetal bovine serum and 800 µg/mL-1 of G418 sulfate), cells were seeded in […] (CELLSTAR®, Greiner Bio-One®, Monroe, NC USA) at 20,000 cells per well and were incubated overnight. The next assay, the cell culture medium was removed, and cells were rinsed twice with 200 µl DPBS, and 180 µl of HBSS buffer was added into each well. The peptide stock solutions were prepared in 1% DMSO in HBSS at 100 µM. TMR-RK8 (20 µl) was added into each well and incubated with the cells for 5 min at room temperature. The medium was then removed with a pipette and the cells were rinsed twice with 200 µl HBSS, and DAPI (VECTASHIELD® H-1200, Vector Laboratories) was added (20 µl of 0.15 µg/ml) for visualizing the cell nuclei. Cells were rinsed twice with 200 µl of HBSS, and finally 180 µl HBSS per well was added.
The cells were immediately imaged under a Zeiss Axio Observer® inverted fluorescence microscope. The exposure time for the Bodipy-Tetramethylrhodamine-X (BPTmX) fluorescence channel was the same for BMLK3 cells and V/O cells. DAPI imaging was done subsequently using the same focal height as the BPTmx channel.

TMR-C-GTGEDQAFSPWGamide [TMR-RK8]
displacement of TMR-RK8 label by phalloidin (in words) ([1]; 10 µM TMR-RK8, Alexa Fluor 488 Phalloidin 15 min, midgut muscle fibers): no observed phalloidin displacement of the TMR-RK8 label | non-specific labeling below midgut surface (in words) ([1]; 10 µM labeled peptide, 1 min, midguts ex vivo, Z-slices under the surface): aggregation of TMR-RK8 signal in what appears to be lipid vesicles; also recorded: non-specific labeling observed in lipid vesicles inside the midgut | labeling of midgut surface muscles (in words) ([1]; 10 µM labeled peptide, 1 min, tick saline pH 7.2, midguts of unfed females ex vivo, DAPI and Alexa 488-phalloidin, confocal 20X/40X): labeled the kinin receptor in muscles; also recorded: localized the kinin receptor to both circular and longitudinal muscles; also recorded: signal was observed in the tick midgut muscles under confocal microscopy; also recorded: observed only on the surface of the midgut; also recorded: binding specifically to the circular (white arrowheads) and longitudinal (white arrows) muscles | labeling of vector-only cells, Fig. S1 (in words) [2]: only observed in the BLMK3 cells
